Each structure is given as a SMILES string.

The assay addresses T1, mouse TRPM3a2 (mTRPM3) ion channel (Mus musculus, UniProt J9SQF3).
T1 construct: expressed in transfected cells; host or cells: flip-in HEK293
The assay can be described thus: TRPM3 ion channel driven Ca2+ uptake, Fluo-4 AM assay (PS-stimulated, overexpressing flip-in HEK293 cells). The format is cell-based. The procedure: In order to monitor the inhibition of the mouse TRPM3a2 (mTRPM3) ion channel by the compounds of the invention, a cellular system making use of an mTRPM3alpha2 or hTRPM3 overexpressing cell line (flip-in HEK293) was used. The TRPM3 channel was stimulated/opened with Pregnenolone sulfate (PS) (50 μM) which results in Ca^2+ influx.
For mTRPM3, the intracellular Ca^2+ was measured with a Calcium responsive dye, Fluor-4 AM ester (Invitrogen). Cells were cultured until a confluence of 80-90%, washed with Versene (Invitrogen) and detached from the surface by a short incubation with 0.05% Trypsin (Invitrogen). The trypsination process was stopped by the addition of complete cell culture medium (DMEM, glutamax, 10% FCS, NEAA, Pen-Strep). Cells were collected and resuspended in Krebs buffer without Calcium at RT.
Prior the cell seeding (±2000 cells/well into a black, 384 well plate (Greiner)) the diluted compound was added in the assay plate, together with the PS dissolved in Krebs buffer containing Calcium. […] Directly after cell addition the plates were read on an Envision fluorescence reader (Perkin Elmer) by an Excitation of 485 nm and emission at 535 nm.
Channel inhibition was calculated compared to a non-PS stimulated control versus a condition stimulated with PS (50 μM) with vehicle. The ability of the compounds of the invention to inhibit this activity was determined as: Percentage inhibition=[1-((RFU determined for sample with test compound present—RFU determined for sample with positive control inhibitor) divided by (RFU determined in the presence of vehicle—RFU determined for sample with positive control inhibitor))]*100.

Setting [1] is: PS (50 μM) stimulated, cpd 001-199.
The mark [2] stands for this setting: PS (50 μM) stimulated Ca2+ influx, HEK293, cpds 300-399.
The mark [3] stands for this setting: PS (50 μM) stimulated, cpds. 400-499.

T1 sequence (J9SQF3 1-1709 isoform J9SQF3-12): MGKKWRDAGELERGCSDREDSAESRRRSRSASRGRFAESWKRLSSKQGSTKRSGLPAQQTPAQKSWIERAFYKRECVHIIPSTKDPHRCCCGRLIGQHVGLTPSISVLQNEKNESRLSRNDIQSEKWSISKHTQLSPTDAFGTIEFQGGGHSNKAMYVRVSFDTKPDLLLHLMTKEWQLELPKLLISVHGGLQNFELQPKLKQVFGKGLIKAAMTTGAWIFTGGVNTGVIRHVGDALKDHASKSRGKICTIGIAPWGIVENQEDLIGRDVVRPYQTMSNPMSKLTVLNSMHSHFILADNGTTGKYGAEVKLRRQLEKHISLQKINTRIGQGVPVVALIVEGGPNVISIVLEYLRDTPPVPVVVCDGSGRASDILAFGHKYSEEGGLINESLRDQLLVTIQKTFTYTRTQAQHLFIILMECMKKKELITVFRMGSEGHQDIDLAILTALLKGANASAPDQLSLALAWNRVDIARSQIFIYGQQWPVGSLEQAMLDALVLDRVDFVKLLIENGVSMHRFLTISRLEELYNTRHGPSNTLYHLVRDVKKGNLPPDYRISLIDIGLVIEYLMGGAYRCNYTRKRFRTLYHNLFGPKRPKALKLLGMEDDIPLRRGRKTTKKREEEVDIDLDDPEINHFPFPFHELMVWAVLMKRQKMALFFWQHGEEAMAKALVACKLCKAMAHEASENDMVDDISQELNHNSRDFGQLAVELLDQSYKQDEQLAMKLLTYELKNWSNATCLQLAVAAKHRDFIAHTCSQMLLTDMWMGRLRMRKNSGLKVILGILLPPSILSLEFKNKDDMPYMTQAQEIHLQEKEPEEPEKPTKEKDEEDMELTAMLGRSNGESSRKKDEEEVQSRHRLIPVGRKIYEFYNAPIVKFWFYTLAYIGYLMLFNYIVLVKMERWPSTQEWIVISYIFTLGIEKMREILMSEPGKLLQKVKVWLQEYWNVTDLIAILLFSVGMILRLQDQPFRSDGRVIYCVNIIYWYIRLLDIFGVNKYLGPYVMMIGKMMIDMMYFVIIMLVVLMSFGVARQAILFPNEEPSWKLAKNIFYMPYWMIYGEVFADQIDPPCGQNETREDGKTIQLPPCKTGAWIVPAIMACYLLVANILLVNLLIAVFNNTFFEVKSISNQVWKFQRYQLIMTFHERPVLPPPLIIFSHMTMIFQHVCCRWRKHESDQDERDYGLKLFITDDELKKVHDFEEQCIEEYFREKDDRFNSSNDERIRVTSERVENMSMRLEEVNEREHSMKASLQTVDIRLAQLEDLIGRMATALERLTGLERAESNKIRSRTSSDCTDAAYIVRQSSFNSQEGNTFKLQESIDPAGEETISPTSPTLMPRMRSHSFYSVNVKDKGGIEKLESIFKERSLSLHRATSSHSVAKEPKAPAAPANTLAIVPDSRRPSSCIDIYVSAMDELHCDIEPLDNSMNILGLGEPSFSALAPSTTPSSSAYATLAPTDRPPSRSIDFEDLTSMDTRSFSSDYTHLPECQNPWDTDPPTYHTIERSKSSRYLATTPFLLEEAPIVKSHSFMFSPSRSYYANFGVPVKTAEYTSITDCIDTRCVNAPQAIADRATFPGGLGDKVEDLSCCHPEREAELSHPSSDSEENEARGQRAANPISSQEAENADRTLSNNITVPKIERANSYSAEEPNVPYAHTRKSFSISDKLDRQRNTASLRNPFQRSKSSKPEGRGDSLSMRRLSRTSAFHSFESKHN

As to `Cc1oc2ccc(OCc3cccnc3C(F)(F)F)cc2c1C(=O)O`, the IC50 under setting [1] is 1000 to 20000 nM.

Regarding `Cc1ncsc1COc1ccc2oc(C)c(C(=O)NC3CCN(C)CC3(F)F)c2c1` (single isomer, unassigned) [110 - En 1], the IC50 under setting [1] is at most 1000 nM.

Take `Cc1ncsc1COc1ccc2oc(C)c(C(=O)NC3CN(C)CCC3(F)F)c2c1` (single isomer, unassigned) [118 - En 1]: under setting [1], the IC50 was at most 1000 nM. The same measure, in the same setting: the value for `Cc1ncsc1COc1ccc2oc(C)c(C(=O)NC3CN(C)CC3(F)F)c2c1` (single isomer, unassigned) [123 - En 1] was at most 1000 nM; that for `Cc1oc2ccc(OCc3cccnc3C(F)(F)F)cc2c1C(=O)NC1(CCO)CCOC1` (single isomer, unassigned) [126 - En 1] was at most 1000 nM; that for `Cc1oc2ccc(OCc3cccnc3C(F)(F)F)cc2c1C(=O)NC1CCN(C)CC1(F)F` (single isomer, unassigned) [130 - En 1] was at most 1000 nM.

Under setting [1], `Cc1oc2ccc(OCc3cccnc3C(F)(F)F)cc2c1C(=O)NC1CN(C)CCC1(F)F` (single isomer, unassigned) [131 - En 1] had an IC50 of at most 1000 nM. The same measure, in the same setting: the value for `Cc1oc2ccc(OCc3cccnc3C(F)(F)F)cc2c1C(=O)NC1CN(CCO)CC1(F)F` (single isomer, unassigned) [134 - En 1] was 1000 to 20000 nM.

Turning to `Cc1oc2ccc(OCc3cccnc3C(F)(F)F)cc2c1C(=O)NC1CN(CCO)CC1(F)F` (single isomer, unassigned) [134 - En 2], the IC50 under setting [1] is at most 1000 nM. On the same count and under the same terms, the value for `Cc1oc2ccc(OCc3cccnc3C(F)(F)F)cc2c1C(=O)NC1CN(C)CC(F)(F)C1` (single isomer, unassigned) [141 - En 1] was at most 1000 nM. Still for that read-out and setting: in the case of `Cc1ncsc1COc1ccc2oc(C)c(C(=O)NC3CN(CCO)CC3(F)F)c2c1` (single isomer, unassigned) [151 - En 1] it was at most 1000 nM; in that of `Cc1ncsc1COc1ccc2oc(C)c(C(=O)NC3CN(CC(F)(F)F)CC3(F)F)c2c1` (single isomer, unassigned) [155 - En 1, N-(4,4-difluoro-1-(2,2,2-trifluoroethyl)pyrrolidin-3-yl)-2-methyl-5-((4-methylthiazol-5-yl)me-thoxy)benzofuran-3-carboxamide], at most 1000 nM. Still for that read-out and setting: in the case of `Cc1ncsc1COc1ccc2oc(C)c(C(=O)NC3CN(CC(F)(F)F)CC3(F)F)c2c1` (single isomer, unassigned) [155 - En 2, N-(4,4-difluoro-1-(2,2,2-trifluoroethyl)pyrrolidin-3-yl)-2-methyl-5-((4-methylthiazol-5-yl)me-thoxy)benzofuran-3-carboxamide] it was at most 1000 nM; in that of `Cc1ncsc1COc1ccc2oc(C)c(C(=O)NC3CN(C)CC(F)(F)C3)c2c1` (single isomer, unassigned) [163 - En 1], at most 1000 nM. Under setting [1], `Cc1oc2cc(Cl)c(OCc3cccnc3C(F)(F)F)cc2c1C(=O)NC1CCNCC1(F)F` (single isomer, unassigned) [165 - En 1] showed an IC50 of at most 1000 nM. Same read-out and setting: the value for `Cc1oc2cc(Cl)c(OCc3cccnc3C(F)(F)F)cc2c1C(=O)NC1CCNCC1(F)F` (single isomer, unassigned) [165 - En 2] was 1000 to 20000 nM; that for `COCCN1CCC(NC(=O)c2c(C)oc3ccc(OCc4scnc4C)cc23)C1=O` (single isomer, unassigned) [169 - En 1] was at most 1000 nM; that for `COCCN1CCC(NC(=O)c2c(C)oc3ccc(OCc4scnc4C)cc23)C1=O` (single isomer, unassigned) [169 - En 2] was at most 1000 nM.

As to `Cc1ncsc1COc1ccc2oc(C)c(C(=O)NC3CC(=O)N(CCO)C3)c2c1` (single isomer, unassigned) [180 - En 1], under setting [1], the IC50 was in the range of 1000 to 20000 nM. Still for that read-out and setting: in the case of `Cc1oc2c(C)cc(OCc3cccnc3C(F)(F)F)cc2c1C(=O)NC1CCNCC1(F)F` (single isomer, unassigned) [183 - En 1, N-(3,3-difluoropiperidin-4-yl)-2,7-dimethyl-5-((2-(trifluoromethyl)pyridin-3-yl)methoxy)benzofuran-3-carboxamide] it was 1000 to 20000 nM; in that of `Cc1oc2c(C)cc(OCc3cccnc3C(F)(F)F)cc2c1C(=O)NC1CCNCC1(F)F` (single isomer, unassigned) [183 - En 2, N-(3,3-difluoropiperidin-4-yl)-2,7-dimethyl-5-((2-(trifluoromethyl)pyridin-3-yl)methoxy)benzofuran-3-carboxamide], at least 20000 nM; in that of `Cc1oc2c(Cl)cc(OCc3cccnc3C(F)(F)F)cc2c1C(=O)NC1CCNCC1(F)F` (single isomer, unassigned) [184 - En 1], 1000 to 20000 nM. Compound `Cc1oc2c(Cl)cc(OCc3cccnc3C(F)(F)F)cc2c1C(=O)NC1CCNCC1(F)F` (single isomer, unassigned) [184 - En 2] came in with an IC50 under setting [1] of at least 20000 nM. In turn, `Cc1oc2cc(C#N)c(OCc3cccnc3C(F)(F)F)cc2c1C(=O)NC1CCNCC1(F)F` (single isomer, unassigned) [195 - En 2, 6-cyano-N-(3,3-difluoropiperidin-4-yl)-2-methyl-5-((2-(trifluoromethyl)pyridin-3-yl)methoxy)-benzofuran-3-carboxamide] displayed a half-maximal inhibitory concentration (IC50) under setting [1] of 1000 to 20000 nM.

`Cc1ncsc1COc1ccc2oc(C)c(C(=O)NC3CCN(CCO)C3=O)c2c1F` (single isomer, unassigned) [326 - En 1] displayed an IC50 under setting [2] of at most 1000 nM. Same read-out and setting: the value for `Cc1ncsc1COc1ccc2oc(C)c(C(=O)NC3CCN(CCO)C3=O)c2c1F` (single isomer, unassigned) [326 - En 2] was 1000 to 20000 nM; that for `Cc1oc2ccc(OCc3ccnn3CC(F)F)cc2c1C(=O)NC1(CO)CCNC1=O` (single isomer, unassigned) [333 - En 1] was at most 1000 nM; that for `CCOc1ncccc1COc1ccc2oc(C)c(C(=O)NC3CCN(CCO)C3=O)c2c1` (single isomer, unassigned) [348 - En 1] was at most 1000 nM.

Under setting [2], `Cc1oc2ccc(OCc3c(F)cnn3C)cc2c1C(=O)NC1(CO)CCCNC1=O` (single isomer, unassigned) [355 - En 1] registered an IC50 of at most 1000 nM.

Regarding `Cc1oc2ccc(OCc3c(F)cnn3C)cc2c1C(=O)NC1(CO)CCNC1=O` (single isomer, unassigned) [356 - En 1], the IC50 under setting [2] is at most 1000 nM. On the same count and under the same terms, the value for `Cc1ncsc1COc1cc2c(C(=O)NC3CCN(CCO)C3=O)c(C)oc2cc1F` (single isomer, unassigned) [360 - En 1] was at most 1000 nM. Take `Cc1ncsc1COc1cc(F)c2oc(C)c(C(=O)NC3CCN(CCO)C3=O)c2c1` (single isomer, unassigned) [365 - En 1]: the IC50 under setting [2] is at least 20000 nM.

In the case of `Cc1ncc(COc2ccc3oc(C)c(C(=O)NC4COCC4O)c3c2)s1` (single isomer, unassigned) [386 - En 1], under setting [2], the IC50 is at most 1000 nM. Regarding `Cc1ncc(COc2ccc3oc(C)c(C(=O)NC4COCC4O)c3c2)s1` (single isomer, unassigned) [386 - En 2], the IC50 under setting [2] is 1000 to 20000 nM. Still for that read-out and setting: the value for `Cc1oc2ccc(OCc3ccccn3)cc2c1C(=O)NC1COCC1O` (single isomer, unassigned) [387 - En 1] was at most 1000 nM. With `Cc1ncc(COc2ccc3oc(C)c(C(=O)NC4COCC4O)c3c2)s1` (single isomer, unassigned) [388 - En 1], under setting [2], the IC50 was at most 1000 nM. On to `Cc1ncc(COc2ccc3oc(C)c(C(=O)NC4COCC4O)c3c2)s1` (single isomer, unassigned) [388 - En 2], for which the IC50 under setting [2] was 1000 to 20000 nM. On the same count and under the same terms, the value for `Cc1ncc(C(C)Oc2ccc3oc(C)c(C(=O)NC(CO)C(N)=O)c3c2)s1` (single isomer, unassigned) [395 - Dia 1] was at most 1000 nM; that for `Cc1ncsc1COc1ccc2oc(C)c(C(=O)NC(C)C(=O)N(C)CCO)c2c1` (single isomer, unassigned) [396 - En 1] was at most 1000 nM.

For the compound `Cc1ncsc1COc1ccc2oc(C)c(C(=O)NC(C)C(=O)NCCO)c2c1` (single isomer, unassigned) [397 - En 1], the IC50 under setting [2] was at most 1000 nM. Take `Cc1oc2ccc(OCc3nccn3C)cc2c1C(=O)NC1CCN(CCO)C1=O` (single isomer, unassigned) [403 - En 1]: the half-inhibitory concentration (IC50) under setting [3] was 1000 to 20000 nM. On the same count and under the same terms, the value for `Cc1oc2ccc(OCc3nccn3C)cc2c1C(=O)NC1CCN(CCO)C1=O` (single isomer, unassigned) [403 - En 2] was at least 20000 nM; that for `Cc1oc2ccc(OCc3ccnn3C)cc2c1C(=O)NC1CCN(CCO)C1=O` (single isomer, unassigned) [404 - En 1] was 1000 to 20000 nM; that for `Cc1oc2ccc(OCc3ccccn3)cc2c1C(=O)NC1CCN(CCO)C1=O` (single isomer, unassigned) [406 - En 1] was at most 1000 nM. Same read-out and setting: in the case of `Cc1oc2ccc(OCc3nccs3)cc2c1C(=O)NC1CCN(CCO)C1=O` (single isomer, unassigned) [407 - En 1] it was at most 1000 nM. The same measure, in the same setting: in the case of `Cc1oc2ccc(OCc3nccs3)cc2c1C(=O)NC1CCN(CCO)C1=O` (single isomer, unassigned) [407 - En 2] it was 1000 to 20000 nM; in that of `Cc1oc2ccc(OCc3cccnc3O)cc2c1C(=O)NC1CCN(CCO)C1=O` (single isomer, unassigned) [408 - En 1], at most 1000 nM.

As a reminder, the IC50 is the concentration needed to halve the response being measured.

The record behind these values is patent US20240336602A1 (Katholieke Universiteit Leuven, priority 2020, published 2024).
